Laboratory results reported in ChEMBL document CHEMBL3608215, “Natural β-Dihydroagarofuran-Type Sesquiterpenoids as Cognition-Enhancing and Neuroprotective Agents from Medicinal Plants of the Genus Celastrus” (2015).
The source made the active and inactive calls. The calls are words filed in the database; no cut-off is given here.

Key:
Mus musculus [1] = experiment: Cognition-enhancing effect in ICR mouse assessed as reduction of scopolamine-induced escape latency and number of errors at 20 mg/kg, ig treated 1 hr before scopolamine challenge by passageway water maze test; assay type: functional, organism-based
Mus musculus [2] = experiment: Cognition-enhancing effect in ICR mouse assessed as reduction of scopolamine-induced escape latency and number of errors at 0.1 mg/kg, ig treated 1 hr before scopolamine challenge by passageway water maze test; assay type: functional, organism-based
Mus musculus [3] = experiment: Cognition-enhancing effect in ig dosed ICR mouse assessed as reduction of scopolamine-induced escape latency and number of errors treated 1 hr before scopolamine challenge by passageway water maze test; assay type: functional, organism-based
Mus musculus [4] = experiment: Cognition-enhancing effect in ICR mouse assessed as reduction of scopolamine-induced escape latency and number of errors at 10 to 40 mg/kg, ig treated 1 hr before scopolamine challenge by passageway water maze test; assay type: functional, organism-based
SH-SY5Y = experiment: Neuroprotective activity in human SH-SY5Y cells assessed as production against amyloid beta (25 to 35)-induced cell death by measuring cell viability at 1 uM after 24 hrs by MTT assay; assay type: functional

Compound | Activity (Mus musculus [1]) | Activity (Mus musculus [2]) | further results
CC(=O)O[C@H]1C[C@@H]2[C@@H](OC(C)=O)[C@]3(OC2(C)C)[C@H](C)CC[C@H](OC(=O)c2ccccc2)[C@@]13C | Active | Active | 
C/C=C1\[C@H]2C=C(C)C[C@]1(N)c1ccc(=O)[nH]c1C2 |  | Active | 
CC(=O)OC[C@@]12[C@@H](OC(C)=O)CC[C@@H](C)[C@]13OC(C)(C)[C@H](C[C@@H]2OC(=O)c1ccccc1)[C@H]3OC(C)=O | Active | Active | 
CC(=O)O[C@H]1CC[C@@H](C)[C@@]23C[C@@H](C[C@H](OC(=O)/C=C/c4ccccc4)[C@]12C)C(C)(C)O3 |  | Active | Activity (Mus musculus [3]): Dose-dependent effect
CC(=O)O[C@@H]1[C@@H]2[C@@H](OC(C)=O)[C@]3(OC2(C)C)[C@H](C)CC[C@H](OC(C)=O)[C@@]3(C)[C@H]1OC(=O)c1ccccc1 |  |  | Activity (Mus musculus [4]): inactive
CC(=O)O[C@@H]1[C@H]2C[C@H](OC(=O)/C=C/c3ccccc3)[C@]3(C)[C@@H](OC(C)=O)[C@@H](OC(=O)c4ccccc4)C[C@@H](C)[C@@]13OC2(C)C |  |  | Activity (SH-SY5Y): 79.6%
CC(=O)O[C@H]1[C@@H](OC(=O)/C=C/c2ccccc2)C[C@@H](C)[C@@]23C[C@@H](C[C@H](OC(=O)/C=C/c4ccccc4)[C@]12C)C(C)(C)O3 |  |  | Activity (SH-SY5Y): 76.3%
CC(=O)O[C@H]1C[C@@H]2[C@@H](OC(=O)c3ccccc3)[C@]3(OC2(C)C)[C@H](C)CC[C@H](OC(=O)c2ccccc2)[C@@]13C | Active | Active | 
